Laboratory results from article PMC5049785, “Characterization of Novel Antimalarial Compound ACT-451840: Preclinical Assessment of Activity and Dose–Efficacy Modeling” (PLoS Medicine, 2016).
“Also recorded” adds a separate entry of the source.

What was measured:
[1] = test system: P. falciparum TM90C2A (Thailand); assay: [3H]-hypoxanthine incorporation assay, TM90C2A; format: cell-based, Plasmodium falciparum; details: read-out: 50% inhibitory concentration (IC50), resistance CQ, PYR, MFQ, CYC, mean ± SD
P. berghei = details: ± coefficient of variation
Protocol: A single compartment PK model with saturable absorption was obtained using naïve pooling to fit simultaneously the observed blood concentration time data from the PK studies done at a dose of 10, 100, and 300 mg/kg, as described above. Using this model, blood concentration time profiles were predicted for all dosing regimens used in the mouse antimalarial efficacy studies. Cmax, AUC, and time above a threshold concentration were subsequently calculated using non-compartmental analysis. PD modeling was done using an Emax model using Cmax, AUC, or time above a threshold concentration versus survival or antimalarial activity. All modeling and PK analyses were done using Phoenix Winonlin 6.3 (Cetara, Princeton, US).

[2] = Single compartment PK model with saturable absorption (predicted blood PK); set-up: species or system mice; details: for Time over threshold (h), predicted: threshold 1,000 ng/mL
Protocol: In order to analyze the PK/PD relationship, drug exposure was predicted for all tested doses in P. berghei mouse model using a single compartment model with saturable absorption based on the concentration–time profile observed after 10, 100, and 300 mg/kg single-dose regimen in healthy mice.

[3] = test system: P. falciparum NF54 female gametocytes; assay: P. falciparum dual gamete formation assay, female; format: cell-based, Plasmodium falciparum; details: up to a concentration of 20 μM, 24 h incubation
Protocol: Mature P. falciparum NF54 gametocytes were cultured at Imperial College London (London, United Kingdom), as previously described. […] Male gamete formation was quantified by computer-aided automated identification and counting of exflagellation centers. Female gamete formation was visualized by live immunofluorescence with a Cy3-conjugated antibody specific for Pfs25—a female gamete expressed surface protein. […] IC50 values were calculated using GraphPad Prism version 6 using the logarithmic versus normalized response (variable slope) function (Graphpad Software, San Diego, US).

[4] = General oral toxicity study up to 4 wk, dogs; format: in vivo
[5] = test system: P. falciparum V1/S (Vietnam); assay: [3H]-hypoxanthine incorporation assay, V1/S; format: cell-based, Plasmodium falciparum; details: read-out: 50% inhibitory concentration (IC50); V1/S, resistance CQ, SUL, PYR, CYC; mean ± SD
[6] = test system: P. falciparum strain 3D7 (MR4); assay: In vitro parasite reduction ratio (PRR) assay; format: cell-based, Plasmodium falciparum
Protocol: In vitro PRR testing was conducted at GSK (Tres Cantos, Madrid, Spain) as previously described. The assay used the limiting dilution technique to quantify the number of parasites that remained viable after drug treatment. […] Parasites were treated for 120 h. Drug in culture medium was renewed daily over the entire treatment period. […] To quantify the number of viable parasites after treatment, 3-fold serial dilutions were used with the above mentioned samples after removing the drug. Four independent serial dilutions were performed with each sample to correct experimental variations. The number of viable parasites was determined after 21 and 28 d by counting the number of wells with growth using [^3H]-hypoxanthine incorporation. The number of viable parasites was back-calculated by using the formula X^n-1 where n is the number of wells able to render growth and X the dilution factor (when n = 0, number of viable parasites is estimated as zero). […] The parasite clearance time to kill 99.9% of the initial population was determined using a regression calculated on the log-linear phase of the parasite reduction, taking into account the lag phase.

[7] = test system: synchronous cultures of P. falciparum NF54; assay: In vitro time-, stage- and concentration-dependent effects; format: cell-based, Plasmodium falciparum; details: 6 or 24 h exposure
Protocol: In vitro time-, stage-, and concentration-dependent effects were assessed using pyrimethamine as a stage-specific and slow-acting control, as described elsewhere.

[8] = mouse PK model parameter estimate
[9] = single-dose regimen, oral 10 mg/kg
[10] = single-dose regimen, oral 15 mg/kg
[11] = single-dose regimen, oral 20 mg/kg
[12] = single-dose regimen, oral 25 mg/kg
[13] = single-dose regimen, oral 30 mg/kg
[14] = single-dose regimen, oral 60 mg/kg
[15] = single-dose regimen, oral 80 mg/kg
[16] = single-dose regimen, oral 100 mg/kg
[17] = single-dose regimen, oral 300 mg/kg
[18] = triple-dose regimen, oral 3 mg/kg once per day
[19] = triple-dose regimen, oral 10 mg/kg once per day
[20] = triple-dose regimen, oral 30 mg/kg once per day
[21] = triple-dose regimen, oral 50 mg/kg once per day
[22] = triple-dose regimen, oral 100 mg/kg once per day
[23] = triple-dose regimen, oral 300 mg/kg once per day
[24] = triple-dose regimen, oral 2 x 15 mg/kg (twice per day)
[25] = triple-dose regimen, oral 2 x 30 mg/kg (twice per day)

CC(=O)N1CCN(c2ccc(CN(C(=O)/C=C/c3ccc(C(C)(C)C)cc3)[C@@H](Cc3ccccc3)C(=O)N3CCN(Cc4ccc(C#N)cc4)CC3)cc2)CC1 [ACT-451840]
IC50 [1]: 1 ± 0.3 nM | Antimalarial activity EX50, X = AUC (P. berghei; Emax model): 8,100 (ng*h/mL) ± 35% | Antimalarial activity EX50, X = Cmax (P. berghei; Emax model): 930 (ng/mL) ± 36% | Antimalarial activity EX50, X = time above threshold (P. berghei; Emax model): 0.14 (h) ± 3,000% | Survival E0, model versus AUC (P. berghei; Emax model): 5.1 (day) ± 17% | Survival E0, model versus Cmax (P. berghei; Emax model): 4 (day) ± 54% | Survival E0, model versus time above threshold (P. berghei; Emax model): 5.9 (day) ± 12% | Survival EX50, X = AUC (P. berghei; Emax model): 170,000 (ng*h/mL) ± 16% | Survival EX50, X = Cmax (P. berghei; Emax model): 15,000 (ng/mL) ± 170% | Survival EX50, X = time above threshold (P. berghei; Emax model): 150 (h) ± 52% | Antimalarial activity Emax, model versus AUC (P. berghei): 110 (%) ± 8.3% | Antimalarial activity Emax, model versus Cmax (P. berghei): 130 (%) ± 11% | Antimalarial activity Emax, model versus time above threshold (P. berghei): 100 (%) ± 38% | Survival Emax, model versus AUC (P. berghei): 35 (day) ± 35% | Survival Emax, model versus Cmax (P. berghei): 62 (day) ± 120% | Survival Emax, model versus time above threshold (P. berghei): 70 (day) ± 71% | total AUC giving an ED90 ([2]; P. berghei model, triple-dose regimen of 13 mg/kg): 16,300 ng*h/mL | Clearance/bioavailability [2, 8]: 2.4 L/h | Concentration at half the maximal absorption [2, 8]: 64000 ng/mL | Max Absorption [2, 8]: 21 µg/h/kg | Volume of distribution/bioavailability [2, 8]: 4.3 L/kg | Cmax (ng/mL), predicted [2, 9]: 617 ng/mL | Tmax (h), predicted [2, 9]: 3 h | Total AUC over the treatment period (ng/mL*h), predicted [2, 9]: 4170 ng·h/mL | Time over threshold (h), predicted [2, 9]: 0 h | Cmax (ng/mL), predicted [2, 10]: 901 ng/mL | Tmax (h), predicted [2, 10]: 3 h | Total AUC over the treatment period (ng/mL*h), predicted [2, 10]: 6260 ng·h/mL | Time over threshold (h), predicted [2, 10]: 0 h | Cmax (ng/mL), predicted [2, 11]: 1170 ng/mL | Tmax (h), predicted [2, 11]: 3 h | Total AUC over the treatment period (ng/mL*h), predicted [2, 11]: 8350 ng·h/mL | Time over threshold (h), predicted [2, 11]: 0 h | Cmax (ng/mL), predicted [2, 12]: 1420 ng/mL | Tmax (h), predicted [2, 12]: 3 h | Total AUC over the treatment period (ng/mL*h), predicted [2, 12]: 10400 ng·h/mL | Time over threshold (h), predicted [2, 12]: 0 h | Cmax (ng/mL), predicted [2, 13]: 1670 ng/mL | Tmax (h), predicted [2, 13]: 3 h | Total AUC over the treatment period (ng/mL*h), predicted [2, 13]: 12500 ng·h/mL | Time over threshold (h), predicted [2, 13]: 0 h | Cmax (ng/mL), predicted [2, 14]: 2900 ng/mL | Tmax (h), predicted [2, 14]: 4 h | Total AUC over the treatment period (ng/mL*h), predicted [2, 14]: 25100 ng·h/mL | Time over threshold (h), predicted [2, 14]: 7 h | Cmax (ng/mL), predicted [2, 15]: 3540 ng/mL | Tmax (h), predicted [2, 15]: 4 h | Total AUC over the treatment period (ng/mL*h), predicted [2, 15]: 33400 ng·h/mL | Time over threshold (h), predicted [2, 15]: 9 h | Cmax (ng/mL), predicted [2, 16]: 4090 ng/mL | Tmax (h), predicted [2, 16]: 6 h | Total AUC over the treatment period (ng/mL*h), predicted [2, 16]: 41800 ng·h/mL | Time over threshold (h), predicted [2, 16]: 11 h | Cmax (ng/mL), predicted [2, 17]: 6690 ng/mL | Tmax (h), predicted [2, 17]: 6.5 h | Total AUC over the treatment period (ng/mL*h), predicted [2, 17]: 126000 ng·h/mL | Time over threshold (h), predicted [2, 17]: 24 h | Cmax (ng/mL), predicted [2, 18]: 192 ng/mL | Tmax (h), predicted [2, 18]: 27 h | Total AUC over the treatment period (ng/mL*h), predicted [2, 18]: 3750 ng·h/mL | Time over threshold (h), predicted [2, 18]: 0 h | Cmax (ng/mL), predicted [2, 19]: 617 ng/mL | Tmax (h), predicted [2, 19]: 27 h | Total AUC over the treatment period (ng/mL*h), predicted [2, 19]: 12500 ng·h/mL | Time over threshold (h), predicted [2, 19]: 0 h | Cmax (ng/mL), predicted [2, 20]: 1,670 ng/mL | Tmax (h), predicted [2, 20]: 51 h | Total AUC over the treatment period (ng/mL*h), predicted [2, 20]: 37600 ng·h/mL | Time over threshold (h), predicted [2, 20]: 0 h | Cmax (ng/mL), predicted [2, 21]: 2530 ng/mL | Tmax (h), predicted [2, 21]: 27 h | Total AUC over the treatment period (ng/mL*h), predicted [2, 21]: 62700 ng·h/mL | Time over threshold (h), predicted [2, 21]: 16 h | Cmax (ng/mL), predicted [2, 22]: 4100 ng/mL | Tmax (h), predicted [2, 22]: 52 h | Total AUC over the treatment period (ng/mL*h), predicted [2, 22]: 125000 ng·h/mL | Time over threshold (h), predicted [2, 22]: 32 h | Cmax (ng/mL), predicted [2, 23]: 6830 ng/mL | Tmax (h), predicted [2, 23]: 54 h | Time over threshold (h), predicted [2, 23]: 72 h | Cmax (ng/mL), predicted [2, 24]: 1060 ng/mL | Tmax (h), predicted [2, 24]: 35 h | Total AUC over the treatment period (ng/mL*h), predicted [2, 24]: 37600 ng·h/mL | Time over threshold (h), predicted [2, 24]: 0 h | Cmax (ng/mL), predicted [2, 25]: 1980 ng/mL | Tmax (h), predicted [2, 25]: 59 h | Total AUC over the treatment period (ng/mL*h), predicted [2, 25]: 75200 ng·h/mL | Time over threshold (h), predicted [2, 25]: 8 h | effect on functional viability of female gametocytes (Pfs25 expression) [3]: no activity; also recorded: no effect | no-observed-adverse-effect level ([4]; oral): 100 mg/kg/day | local gastrointestinal toxicity ([4]; oral up to 1,000 mg/kg/day): no evidence of local gastrointestinal toxicity | IC50 [5]: 0.3 nM | lag phase in the killing curve ([6]; 10 x IC50): without lag phase | parasite clearance time to kill 99.9% of the initial population ([6]; 10 x IC50): 28 h | log PRR ([6]; 10 x IC50, decrease in viable parasites over 48 h): 4.4 | PRR ([6]; asexual blood stage forms): > 4 log per parasite cycle | stage specificity of growth reduction [7]: affected all asexual erythrocytic stages equally
